One experiment addresses T1, Estrogen receptor (Homo sapiens, UniProt P03372).
T1 sequence (P03372 whole entry): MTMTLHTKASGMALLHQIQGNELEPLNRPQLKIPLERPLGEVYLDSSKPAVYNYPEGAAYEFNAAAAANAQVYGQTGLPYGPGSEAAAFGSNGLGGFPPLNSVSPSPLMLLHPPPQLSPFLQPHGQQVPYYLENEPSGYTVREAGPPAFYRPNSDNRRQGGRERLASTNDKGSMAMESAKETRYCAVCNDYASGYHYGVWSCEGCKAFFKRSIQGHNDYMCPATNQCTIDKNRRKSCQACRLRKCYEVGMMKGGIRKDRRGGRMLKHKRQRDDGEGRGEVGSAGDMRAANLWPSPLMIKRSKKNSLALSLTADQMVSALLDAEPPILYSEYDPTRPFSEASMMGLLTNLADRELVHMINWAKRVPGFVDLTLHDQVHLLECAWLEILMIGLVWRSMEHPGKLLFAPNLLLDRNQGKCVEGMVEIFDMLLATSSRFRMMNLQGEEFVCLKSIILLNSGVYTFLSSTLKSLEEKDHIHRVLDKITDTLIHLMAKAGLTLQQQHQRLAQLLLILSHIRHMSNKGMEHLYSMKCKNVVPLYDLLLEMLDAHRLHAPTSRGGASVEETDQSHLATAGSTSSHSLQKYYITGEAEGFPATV
Nature of the experiment: Inhibition of human Estrogen receptor alpha.

In experiment [1] the target is Glucocorticoid receptor (Rattus norvegicus) (UniProt P06536). Nature of the experiment: Inhibition of glucocorticoid receptor mediated tyrosine amino transferase activity.
The target in experiment [2] is T2, Mineralocorticoid receptor (Homo sapiens, UniProt P08235).
T2 sequence (P08235 whole entry): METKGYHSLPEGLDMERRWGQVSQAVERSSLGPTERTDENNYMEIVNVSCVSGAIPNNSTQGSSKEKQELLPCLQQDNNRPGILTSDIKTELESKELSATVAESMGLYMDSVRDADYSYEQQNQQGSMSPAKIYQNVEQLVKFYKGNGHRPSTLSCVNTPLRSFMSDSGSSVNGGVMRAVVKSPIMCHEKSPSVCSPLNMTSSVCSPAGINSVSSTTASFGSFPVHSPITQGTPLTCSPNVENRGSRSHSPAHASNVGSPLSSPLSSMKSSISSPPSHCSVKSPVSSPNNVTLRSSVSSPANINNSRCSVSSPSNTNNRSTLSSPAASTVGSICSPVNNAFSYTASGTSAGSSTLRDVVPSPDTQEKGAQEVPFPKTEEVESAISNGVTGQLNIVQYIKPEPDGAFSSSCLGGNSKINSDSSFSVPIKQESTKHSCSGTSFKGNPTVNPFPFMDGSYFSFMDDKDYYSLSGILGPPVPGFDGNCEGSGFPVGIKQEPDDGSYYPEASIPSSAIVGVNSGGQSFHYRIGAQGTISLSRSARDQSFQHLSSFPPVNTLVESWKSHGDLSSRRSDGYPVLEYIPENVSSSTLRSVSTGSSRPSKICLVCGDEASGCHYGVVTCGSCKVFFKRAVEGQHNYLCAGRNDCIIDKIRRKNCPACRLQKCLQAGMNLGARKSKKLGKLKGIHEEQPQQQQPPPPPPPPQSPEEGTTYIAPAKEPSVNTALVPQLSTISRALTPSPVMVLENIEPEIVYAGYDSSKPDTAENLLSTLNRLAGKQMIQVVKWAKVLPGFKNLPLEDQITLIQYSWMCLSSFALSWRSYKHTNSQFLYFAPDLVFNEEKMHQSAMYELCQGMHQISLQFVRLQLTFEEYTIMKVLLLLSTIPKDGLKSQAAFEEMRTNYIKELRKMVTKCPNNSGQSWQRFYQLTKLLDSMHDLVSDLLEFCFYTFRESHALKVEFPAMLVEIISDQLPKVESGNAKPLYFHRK
Description: Inhibition of human Mineralocorticoid receptor

A further experiment deals with Estrogen receptor beta (Homo sapiens, UniProt Q92731). Nature of the experiment: Inhibition of human Estrogen receptor beta.
Another experiment has as its target T3, Androgen receptor (Homo sapiens, UniProt P10275).
T3 sequence (P10275 whole entry): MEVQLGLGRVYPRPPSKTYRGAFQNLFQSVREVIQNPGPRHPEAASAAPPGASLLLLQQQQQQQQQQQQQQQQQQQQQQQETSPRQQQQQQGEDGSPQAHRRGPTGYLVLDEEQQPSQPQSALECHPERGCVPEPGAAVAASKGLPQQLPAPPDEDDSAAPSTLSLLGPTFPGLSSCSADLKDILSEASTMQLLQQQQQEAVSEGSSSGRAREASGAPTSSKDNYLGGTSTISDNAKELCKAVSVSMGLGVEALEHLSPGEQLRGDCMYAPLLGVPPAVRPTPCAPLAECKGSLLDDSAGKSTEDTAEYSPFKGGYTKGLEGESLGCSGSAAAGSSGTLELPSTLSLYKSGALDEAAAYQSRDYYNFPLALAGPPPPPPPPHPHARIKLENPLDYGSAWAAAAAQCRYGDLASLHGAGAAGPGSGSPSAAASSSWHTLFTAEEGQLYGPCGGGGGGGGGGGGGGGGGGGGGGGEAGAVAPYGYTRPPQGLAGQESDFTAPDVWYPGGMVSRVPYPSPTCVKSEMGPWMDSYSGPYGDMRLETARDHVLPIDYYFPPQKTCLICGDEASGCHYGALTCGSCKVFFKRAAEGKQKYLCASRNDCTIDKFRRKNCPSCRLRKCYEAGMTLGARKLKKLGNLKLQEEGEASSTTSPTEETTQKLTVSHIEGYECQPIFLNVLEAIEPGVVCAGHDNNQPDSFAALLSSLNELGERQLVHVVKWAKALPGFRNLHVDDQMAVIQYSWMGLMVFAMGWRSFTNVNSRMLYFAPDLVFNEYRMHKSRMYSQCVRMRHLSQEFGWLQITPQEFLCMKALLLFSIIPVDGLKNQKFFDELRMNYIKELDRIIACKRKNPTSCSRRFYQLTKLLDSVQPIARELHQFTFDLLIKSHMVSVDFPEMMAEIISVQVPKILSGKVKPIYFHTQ

The structures appear in SMILES notation.

Sequence of Estrogen receptor beta (Q92731 whole entry): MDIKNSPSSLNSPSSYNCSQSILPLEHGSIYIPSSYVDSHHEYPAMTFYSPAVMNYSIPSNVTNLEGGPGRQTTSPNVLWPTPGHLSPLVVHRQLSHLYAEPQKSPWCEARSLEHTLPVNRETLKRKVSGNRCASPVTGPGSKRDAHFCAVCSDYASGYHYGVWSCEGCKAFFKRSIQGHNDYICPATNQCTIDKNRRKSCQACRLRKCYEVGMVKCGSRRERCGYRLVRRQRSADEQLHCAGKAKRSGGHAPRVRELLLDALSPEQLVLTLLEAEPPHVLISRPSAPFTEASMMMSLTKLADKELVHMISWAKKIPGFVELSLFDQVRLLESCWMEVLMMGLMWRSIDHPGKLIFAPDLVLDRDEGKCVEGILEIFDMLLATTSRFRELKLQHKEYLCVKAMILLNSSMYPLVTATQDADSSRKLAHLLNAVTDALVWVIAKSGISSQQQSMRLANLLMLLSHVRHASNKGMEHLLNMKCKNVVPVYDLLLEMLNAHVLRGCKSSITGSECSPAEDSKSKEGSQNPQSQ
Sequence of Glucocorticoid receptor (Rattus norvegicus) (P06536 whole entry, looked up): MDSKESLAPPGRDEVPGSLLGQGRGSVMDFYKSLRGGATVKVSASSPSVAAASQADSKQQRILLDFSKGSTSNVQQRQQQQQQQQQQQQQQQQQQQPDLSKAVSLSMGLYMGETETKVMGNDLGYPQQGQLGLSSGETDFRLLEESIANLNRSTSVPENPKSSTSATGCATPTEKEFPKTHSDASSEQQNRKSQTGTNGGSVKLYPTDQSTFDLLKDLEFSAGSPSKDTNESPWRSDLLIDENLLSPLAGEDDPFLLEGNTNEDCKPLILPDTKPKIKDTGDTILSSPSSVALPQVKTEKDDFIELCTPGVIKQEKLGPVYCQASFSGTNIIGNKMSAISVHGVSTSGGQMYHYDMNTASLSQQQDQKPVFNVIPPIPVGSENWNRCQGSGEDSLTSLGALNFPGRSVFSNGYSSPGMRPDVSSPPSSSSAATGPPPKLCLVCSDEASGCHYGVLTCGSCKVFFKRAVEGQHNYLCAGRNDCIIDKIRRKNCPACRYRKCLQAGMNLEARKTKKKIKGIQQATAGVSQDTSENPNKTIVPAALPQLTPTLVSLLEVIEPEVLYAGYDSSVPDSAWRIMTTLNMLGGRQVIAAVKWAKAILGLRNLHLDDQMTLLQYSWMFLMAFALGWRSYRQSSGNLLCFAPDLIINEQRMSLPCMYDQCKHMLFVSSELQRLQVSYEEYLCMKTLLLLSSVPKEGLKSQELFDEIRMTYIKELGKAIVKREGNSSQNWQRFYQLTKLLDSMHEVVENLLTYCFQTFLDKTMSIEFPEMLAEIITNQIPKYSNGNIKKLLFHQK
Description for Androgen receptor: Inhibition of human androgen receptor

In general, Ki refers to a measure of affinity in units of concentration, obtained from inhibition or displacement. On to `C#C[C@]1(O)CC[C@H]2[C@@H]3CCC4=CC(=O)CCC4=C3[C@@H](c3ccc(N(C)CCOC4CC[C@@]5(C)[C@@H](C4)C[C@@H](O)[C@@H]4[C@@H]5C[C@H](O)[C@]5(C)[C@@H]([C@H](C)CCC(=O)O)CC[C@@H]45)cc3)C[C@@]21C` (stereo in doubt; form 1), for which the Ki at Estrogen receptor was 11 nM; in experiment [1], 220 nM; in experiment [2], over 1000 nM; at Estrogen receptor beta, 89 nM; on Androgen receptor it was 8.9 nM.

In the case of `C#C[C@]1(O)CC[C@H]2[C@@H]3CCC4=CC(=O)CCC4=C3[C@@H](c3ccc(N(C)CCCOC4CC[C@@]5(C)[C@@H](C4)C[C@@H](O)[C@@H]4[C@@H]5C[C@H](O)[C@]5(C)[C@@H]([C@H](C)CCC(=O)O)CC[C@@H]45)cc3)C[C@@]21C` (some centres not stated), the Ki on Estrogen receptor is 8.8 nM; in experiment [1], 100 nM; in experiment [2], 80 nM; at Estrogen receptor beta it was 13 nM; at Androgen receptor, 4.6 nM.

Regarding `C#C[C@]1(O)CC[C@H]2[C@@H]3CCC4=CC(=O)CCC4=C3[C@@H](c3ccc(N(C)CCCC(=O)N(C)C4CC[C@@]5(C)[C@@H](C4)C[C@@H](O)[C@@H]4[C@@H]5C[C@H](O)[C@]5(C)[C@@H]([C@H](C)CCC(=O)O)CC[C@@H]45)cc3)C[C@@]21C` (some centres not stated), the inhibitory constant (Ki) at Estrogen receptor worked out at 6.2 nM; in experiment [1] it was 60 nM; in experiment [2], 190 nM; on Estrogen receptor beta, 13 nM; on Androgen receptor it was 7.4 nM.

In the case of `C#C[C@]1(O)CC[C@H]2[C@@H]3CCC4=CC(=O)CCC4=C3[C@@H](c3ccc(N(C)CCOCCO[C@H]4CC[C@@]5(C)[C@@H](C4)C[C@@H](O)[C@@H]4[C@@H]5C[C@H](O)[C@]5(C)[C@@H]([C@H](C)CCC(=O)O)CC[C@@H]45)cc3)C[C@@]21C`, the inhibitory constant (Ki) is 14 nM on Estrogen receptor; 56 nM in experiment [1]; 150 nM in experiment [2]; 51 nM on Estrogen receptor beta; 3.3 nM at Androgen receptor.

With `C#C[C@]1(O)CC[C@H]2[C@@H]3CCC4=CC(=O)CCC4=C3[C@@H](c3ccc(N(C)C(=O)CC[C@H](NC(=O)CC[C@@H](C)[C@H]4CC[C@H]5[C@@H]6[C@H](O)C[C@@H]7C[C@H](O)CC[C@]7(C)[C@H]6C[C@H](O)[C@]45C)C(=O)O)cc3)C[C@@]21C`, the Ki at Estrogen receptor came out at 72 nM; in experiment [1] it was 350 nM; in experiment [2], 590 nM; at Estrogen receptor beta, 240 nM; at Androgen receptor it was 34 nM.

Turning to `C#C[C@]1(O)CC[C@H]2[C@@H]3CCC4=CC(=O)CCC4=C3[C@@H](c3ccc(N(C)C(C)=O)cc3)C[C@@]21C`, the Ki is 34 nM on Estrogen receptor, over 1000 nM in experiment [2], 570 nM on Estrogen receptor beta and 8.9 nM on Androgen receptor.

Regarding `C#C[C@]1(O)CC[C@H]2[C@@H]3CCC4=CC(=O)CCC4=C3[C@@H](c3ccc(N(C)C(=O)CNC(=O)O[C@@H]4C[C@@H]5CC(O)CC[C@]5(C)[C@H]5C[C@H](O)[C@]6(C)[C@@H]([C@H](C)CCC(=O)O)CC[C@H]6[C@H]45)cc3)C[C@@]21C` (some centres not stated), the Ki at Estrogen receptor is 94 nM; in experiment [1] it was 230 nM; in experiment [2], over 1000 nM; at Estrogen receptor beta, over 750 nM; on Androgen receptor it was 37 nM.

On to `C#C[C@]1(O)CC[C@H]2[C@@H]3CCC4=CC(=O)CCC4=C3[C@@H](c3ccc(N(C)CCOC4CC[C@@]5(C)[C@@H](C4)C[C@@H](O)[C@@H]4[C@@H]5C[C@H](O)[C@]5(C)[C@@H]([C@H](C)CCC(=O)NCC(=O)O)CC[C@@H]45)cc3)C[C@@]21C` (some centres not stated), for which the Ki was determined as 180 nM in experiment [1], 510 nM in experiment [2] and 34 nM at Androgen receptor.

As to `C#C[C@]1(O)CC[C@H]2[C@@H]3CCC4=CC(=O)CCC4=C3[C@@H](c3ccc(N(C)CCCS(=O)(=O)N(C)C4CC[C@@]5(C)[C@@H](C4)C[C@@H](O)[C@@H]4[C@@H]5C[C@H](O)[C@]5(C)[C@@H]([C@H](C)CCC(=O)O)CC[C@@H]45)cc3)C[C@@]21C` (some centres not stated), the Ki was found to be 19 nM at Estrogen receptor; 60 nM in experiment [1]; 300 nM in experiment [2]; 39 nM at Estrogen receptor beta; 17 nM on Androgen receptor.

Take `C#C[C@]1(O)CC[C@H]2[C@@H]3CCC4=CC(=O)CCC4=C3[C@@H](c3ccc(N(C)C(=O)CNC(=O)OC4CC[C@@]5(C)[C@@H](C4)C[C@@H](O)[C@@H]4[C@@H]5C[C@H](O)[C@]5(C)[C@@H]([C@H](C)CCC(=O)O)CC[C@@H]45)cc3)C[C@@]21C` (some centres not stated): the Ki on Estrogen receptor amounted to 11 nM; in experiment [1] it was 340 nM; in experiment [2] it was 310 nM; at Estrogen receptor beta, 160 nM; on Androgen receptor, 21 nM.

As for `C#C[C@]1(O)CC[C@H]2[C@@H]3CCC4=CC(=O)CCC4=C3[C@@H](c3ccc(N(C)CCC[C@H]4[C@H](O)CC[C@@]5(C)[C@@H]4C[C@@H](O)[C@@H]4[C@@H]5C[C@H](O)[C@]5(C)[C@@H]([C@H](C)CCC(=O)O)CC[C@@H]45)cc3)C[C@@]21C`, the inhibition constant Ki on Estrogen receptor is 46 nM; in experiment [1], 340 nM; in experiment [2], over 1000 nM; on Estrogen receptor beta, 48 nM; at Androgen receptor, 53 nM.

Turning to `C#C[C@]1(O)CC[C@H]2[C@@H]3CCC4=CC(=O)CCC4=C3[C@@H](c3ccc(N(C)CCNC(=O)N(C)C4CC[C@@]5(C)[C@@H](C4)C[C@@H](O)[C@@H]4[C@@H]5C[C@H](O)[C@]5(C)[C@@H]([C@H](C)CCC(=O)O)CC[C@@H]45)cc3)C[C@@]21C` (some centres not stated), the Ki was 140 nM at Estrogen receptor; 34 nM in experiment [1]; 850 nM in experiment [2]; 190 nM at Estrogen receptor beta; 16 nM on Androgen receptor.

With `C#C[C@]1(O)CC[C@H]2[C@@H]3CCC4=CC(=O)CCC4=C3[C@@H](c3ccc(N(C)CCOC4CC[C@@]5(C)[C@@H](C4)C[C@@H](O)[C@@H]4[C@@H]5C[C@H](O)[C@]5(C)[C@@H]([C@H](C)CCC(=O)NCCS(=O)(=O)O)CC[C@@H]45)cc3)C[C@@]21C` (some centres not stated), the Ki on Estrogen receptor turned out to be 10 nM; in experiment [1] it was 160 nM; in experiment [2] it was 140 nM; on Estrogen receptor beta, 30 nM; on Androgen receptor it was 8.9 nM.

The values above are taken from ChEMBL document CHEMBL1138676, “Liver-selective glucocorticoid antagonists: a novel treatment for type 2 diabetes” (J Med Chem, 2004).
